Source: the NIST ThermoML archive (doi:10.1016/j.jct.2011.10.009)

Experiment: xn = mol fraction of the nth substance listed
Conditions: 101 kPa, Liquid, Vibrating tube method

[2H]C(C)O (stereo not given) [ethanol-1-d] + [2H]O[2H]
mass density [kg/m3]
Conditions	278.15 K	288.15 K	298.15 K	308.15 K	318.15 K
x2 = 0.001004	819.11	810.48	801.72	792.83	783.78
x2 = 0.00168	819.21	810.58	801.83	792.94	783.89
x2 = 0.00308	819.43	810.8	802.05	793.15	784.1
x2 = 0.005192	819.67	811.12	802.37	793.47	784.42
x2 = 0.008159	820.22	811.58	802.83	793.93	784.87
x2 = 0.01089	820.65	812.01	803.25	794.34	785.28
x2 = 0.01426	821.17	812.53	803.76	794.86	785.79
x2 = 0.0173	821.64	813	804.23	795.32	786.25
x2 = 0.02028	822.1	813.46	804.69	795.77	786.7
x2 = 0.02325	822.56	813.91	805.14	796.22	787.14
x2 = 0.02639	823.05	814.4	805.62	796.7	787.61
x2 = 0.03026	823.65	814.99	806.21	797.28	788.19
x2 = 0.03472	824.23	815.57	806.78	797.85	788.76
x2 = 0.03723	824.72	816.06	807.27	798.33	789.23

CCO [ethanol] + O
mass density [kg/m3]
Conditions	278.15 K	288.15 K	298.15 K	308.15 K	318.15 K
x2 = 0.0009961	802.2	793.72	785.15	776.47	767.66
x2 = 0.002144	802.34	793.86	785.29	776.61	767.79
x2 = 0.004143	802.59	794.1	785.53	776.85	768.03
x2 = 0.00674	802.91	794.42	785.85	777.16	768.34
x2 = 0.009286	803.22	794.73	786.16	777.47	768.65
x2 = 0.01189	803.54	795.06	786.48	777.79	768.96
x2 = 0.01442	803.85	795.37	786.79	778.09	769.26
x2 = 0.01794	804.29	795.8	787.22	778.52	769.69
x2 = 0.02115	804.68	796.2	787.61	778.92	770.08
x2 = 0.02506	805.17	796.68	788.1	779.4	770.56
x2 = 0.0292	805.69	797.2	788.61	779.91	771.06
x2 = 0.03125	805.94	797.46	788.87	780.16	771.31
x2 = 0.0336	806.24	797.75	789.16	780.45	771.6
x2 = 0.03661	806.61	798.13	789.54	780.83	771.97
